Like-named read-outs stand apart in the source and are kept apart here.
How the values were obtained:
Assay in all cases: TGFα-shedding assay-based GPCR screening with chimeric Gα subunit proteins
Assay type in all cases: cell-based
[1] = target: T1, 348 GPCRs (Homo sapiens, UniProt P35410)
T1 construct: expressed in transfected cells; host or cells: HEK293A
T1 sequence (P35410 1-378): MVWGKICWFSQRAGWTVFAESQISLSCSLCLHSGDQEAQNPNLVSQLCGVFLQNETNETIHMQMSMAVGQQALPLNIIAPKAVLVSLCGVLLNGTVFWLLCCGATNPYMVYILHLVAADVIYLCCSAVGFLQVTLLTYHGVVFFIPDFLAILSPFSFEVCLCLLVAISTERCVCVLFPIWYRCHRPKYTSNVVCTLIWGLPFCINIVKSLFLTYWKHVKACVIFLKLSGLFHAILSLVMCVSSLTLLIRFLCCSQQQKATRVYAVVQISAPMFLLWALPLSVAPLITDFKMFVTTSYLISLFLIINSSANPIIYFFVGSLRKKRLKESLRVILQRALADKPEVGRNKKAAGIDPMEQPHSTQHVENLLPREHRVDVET

[2] = target: T2, 348 GPCRs (Homo sapiens, UniProt P49286); settings: 10µM, Favipiravir 100μM
T2 construct: expressed in transfected cells; host or cells: HEK293A
T2 sequence (P49286 1-362): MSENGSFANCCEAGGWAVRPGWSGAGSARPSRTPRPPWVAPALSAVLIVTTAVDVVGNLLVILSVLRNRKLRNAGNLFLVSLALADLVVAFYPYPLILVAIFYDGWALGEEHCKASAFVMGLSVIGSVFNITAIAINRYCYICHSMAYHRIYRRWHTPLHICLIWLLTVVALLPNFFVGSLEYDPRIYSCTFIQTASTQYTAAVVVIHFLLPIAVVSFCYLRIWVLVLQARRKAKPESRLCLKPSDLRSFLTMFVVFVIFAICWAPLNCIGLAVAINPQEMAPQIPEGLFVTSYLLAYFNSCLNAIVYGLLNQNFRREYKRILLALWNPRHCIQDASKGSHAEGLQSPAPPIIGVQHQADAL

[3] = target: T3, 348 GPCRs (Homo sapiens, UniProt P49685); settings: 10µM, Favipiravir 100μM
T3 sequence (P49685 1-360): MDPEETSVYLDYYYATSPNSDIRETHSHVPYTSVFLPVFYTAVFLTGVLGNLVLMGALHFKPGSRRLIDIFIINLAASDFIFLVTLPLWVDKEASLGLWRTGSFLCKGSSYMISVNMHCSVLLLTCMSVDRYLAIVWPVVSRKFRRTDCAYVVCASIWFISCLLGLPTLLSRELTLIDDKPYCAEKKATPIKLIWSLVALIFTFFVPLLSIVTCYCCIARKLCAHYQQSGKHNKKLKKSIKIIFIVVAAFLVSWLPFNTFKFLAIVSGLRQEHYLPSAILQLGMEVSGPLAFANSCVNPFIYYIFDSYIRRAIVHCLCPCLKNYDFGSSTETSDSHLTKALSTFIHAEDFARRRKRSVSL

[4] = target: T4, 348 GPCRs (Homo sapiens, UniProt P51810); settings: 10µM, Favipiravir 100μM
T4 construct: expressed in transfected cells; host or cells: HEK293A

[5] = target: T5, 348 GPCRs (Homo sapiens, UniProt P60893); settings: 10µM, Favipiravir 100μM
T5 construct: expressed in transfected cells; host or cells: HEK293A

[6] = target: T6, 348 GPCRs (Homo sapiens, UniProt Q16570); settings: 10µM, Favipiravir 100μM
T6 construct: expressed in transfected cells; host or cells: HEK293A
T6 sequence (Q16570 1-336): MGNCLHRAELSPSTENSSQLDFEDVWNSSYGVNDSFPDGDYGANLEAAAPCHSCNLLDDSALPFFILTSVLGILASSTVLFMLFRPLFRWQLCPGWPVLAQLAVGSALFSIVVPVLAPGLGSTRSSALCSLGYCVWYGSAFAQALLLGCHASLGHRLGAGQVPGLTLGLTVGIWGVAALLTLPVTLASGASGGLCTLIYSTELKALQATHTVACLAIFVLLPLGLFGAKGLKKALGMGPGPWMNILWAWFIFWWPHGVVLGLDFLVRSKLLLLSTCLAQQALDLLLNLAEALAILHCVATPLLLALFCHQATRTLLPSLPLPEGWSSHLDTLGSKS

[7] = target: T7, 348 GPCRs (Homo sapiens, UniProt Q5NUL3)
T7 construct: expressed in transfected cells; host or cells: HEK293A
T7 sequence (Q5NUL3 1-361): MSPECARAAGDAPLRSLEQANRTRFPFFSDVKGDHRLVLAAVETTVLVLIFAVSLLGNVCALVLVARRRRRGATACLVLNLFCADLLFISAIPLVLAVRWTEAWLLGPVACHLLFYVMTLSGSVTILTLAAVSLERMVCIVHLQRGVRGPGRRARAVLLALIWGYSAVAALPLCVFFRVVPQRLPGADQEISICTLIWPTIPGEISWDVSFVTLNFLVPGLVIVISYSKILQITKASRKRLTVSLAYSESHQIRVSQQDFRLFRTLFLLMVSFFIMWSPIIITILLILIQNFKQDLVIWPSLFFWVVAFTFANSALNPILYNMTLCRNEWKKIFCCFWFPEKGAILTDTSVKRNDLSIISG

[8] = target: 348 GPCRs (Homo sapiens, UniProt Q9UPC5); settings: 10µM, Favipiravir 100μM
[9] = target: T8, 348 GPCRs (Homo sapiens, UniProt Q9Y653)
T8 construct: expressed in transfected cells; host or cells: HEK293A

[10] = GPCR MAS1L (MAS1 oncogene-like), read-out: % GPCR activation compared to TPA
[11] = MT2R (melatonin receptor type 1B), read-out: % GPCR activation compared to TPA
[12] = GPR15 (G protein-coupled receptor 15), read-out: % GPCR activation compared to TPA
[13] = GPR143 (G Protein-Coupled Receptor 143), read-out: % GPCR activation compared to TPA
[14] = GPR85 (G protein-coupled receptor 85), read-out: % GPCR activation compared to TPA
[15] = DARC (Duffy blood group, chemokine receptor), read-out: % GPCR activation compared to TPA
[16] = FFA4 (free fatty acid receptor 4), Favipiravir 100μM, read-out: % GPCR activation compared to TPA
[17] = GPCR GPR120 (Free Fatty Acid Receptor 4 (FFAR4)), read-out: % GPCR activation compared to TPA
[18] = GPR34 (G Protein-Coupled Receptor 34), read-out: % GPCR activation compared to TPA
[19] = GPCR GPR56 (G protein-coupled receptor 56), read-out: % GPCR activation compared to TPA
[20] = read-out: % GPCR activation compared to TPA, GPCR MAS1L (MAS1 oncogene-like)
[21] = read-out: % GPCR activation compared to TPA, MT2R (melatonin receptor type 1B)
[22] = read-out: % GPCR activation compared to TPA, GPR15 (G protein-coupled receptor 15)
[23] = read-out: % GPCR activation compared to TPA, GPR143 (G Protein-Coupled Receptor 143)
[24] = read-out: % GPCR activation compared to TPA, GPR85 (G protein-coupled receptor 85)
[25] = read-out: % GPCR activation compared to TPA, DARC (Duffy blood group, chemokine receptor)
[26] = read-out: % GPCR activation compared to TPA, FFA4 (free fatty acid receptor 4), Favipiravir 100μM
[27] = read-out: % GPCR activation compared to TPA, GPCR GPR120 (Free Fatty Acid Receptor 4 (FFAR4))
[28] = read-out: % GPCR activation compared to TPA, GPR34 (G Protein-Coupled Receptor 34)
[29] = read-out: % GPCR activation compared to TPA, GPCR GPR56 (G protein-coupled receptor 56)

T8 sequence (Q9Y653 26-693): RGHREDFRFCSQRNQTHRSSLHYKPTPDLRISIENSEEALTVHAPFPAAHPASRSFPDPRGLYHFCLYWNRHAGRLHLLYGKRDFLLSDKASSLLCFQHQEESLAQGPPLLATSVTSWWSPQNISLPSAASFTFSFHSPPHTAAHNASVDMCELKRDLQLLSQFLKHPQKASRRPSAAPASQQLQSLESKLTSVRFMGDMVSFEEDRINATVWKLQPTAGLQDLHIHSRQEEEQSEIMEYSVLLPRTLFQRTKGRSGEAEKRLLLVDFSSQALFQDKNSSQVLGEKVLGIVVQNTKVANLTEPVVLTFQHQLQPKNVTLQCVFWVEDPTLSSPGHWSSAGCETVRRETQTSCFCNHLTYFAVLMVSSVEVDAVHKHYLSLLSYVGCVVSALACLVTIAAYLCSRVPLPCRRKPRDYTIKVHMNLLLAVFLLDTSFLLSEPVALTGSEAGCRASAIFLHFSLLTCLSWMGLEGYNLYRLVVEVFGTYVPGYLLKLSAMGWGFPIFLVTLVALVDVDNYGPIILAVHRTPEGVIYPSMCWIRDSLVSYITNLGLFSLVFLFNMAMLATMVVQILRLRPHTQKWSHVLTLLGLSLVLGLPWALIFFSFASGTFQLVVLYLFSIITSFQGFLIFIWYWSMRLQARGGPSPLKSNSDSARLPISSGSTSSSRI
T5 sequence (P60893 whole entry): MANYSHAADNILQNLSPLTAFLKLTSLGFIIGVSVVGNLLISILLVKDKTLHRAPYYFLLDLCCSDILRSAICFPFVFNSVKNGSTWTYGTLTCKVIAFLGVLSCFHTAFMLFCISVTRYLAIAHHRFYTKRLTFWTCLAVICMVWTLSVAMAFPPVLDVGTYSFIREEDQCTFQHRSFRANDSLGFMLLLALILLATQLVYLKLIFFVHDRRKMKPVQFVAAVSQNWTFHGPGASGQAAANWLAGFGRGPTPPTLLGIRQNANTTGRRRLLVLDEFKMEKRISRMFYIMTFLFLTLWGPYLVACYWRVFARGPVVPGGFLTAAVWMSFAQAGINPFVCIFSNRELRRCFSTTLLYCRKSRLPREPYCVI
348 GPCRs (Homo sapiens, UniProt Q9UPC5), sequence (Q9UPC5 whole entry): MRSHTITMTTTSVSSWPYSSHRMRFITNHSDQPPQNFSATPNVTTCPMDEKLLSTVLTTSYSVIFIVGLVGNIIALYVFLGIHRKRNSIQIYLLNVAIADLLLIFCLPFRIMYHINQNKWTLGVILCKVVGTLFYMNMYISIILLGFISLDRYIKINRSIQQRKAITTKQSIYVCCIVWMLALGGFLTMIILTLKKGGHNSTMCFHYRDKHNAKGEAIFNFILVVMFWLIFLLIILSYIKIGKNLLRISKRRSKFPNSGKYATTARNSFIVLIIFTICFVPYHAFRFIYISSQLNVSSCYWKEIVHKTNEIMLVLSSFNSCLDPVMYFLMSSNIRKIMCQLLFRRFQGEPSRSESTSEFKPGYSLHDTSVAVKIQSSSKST
T4 sequence (P51810 whole entry): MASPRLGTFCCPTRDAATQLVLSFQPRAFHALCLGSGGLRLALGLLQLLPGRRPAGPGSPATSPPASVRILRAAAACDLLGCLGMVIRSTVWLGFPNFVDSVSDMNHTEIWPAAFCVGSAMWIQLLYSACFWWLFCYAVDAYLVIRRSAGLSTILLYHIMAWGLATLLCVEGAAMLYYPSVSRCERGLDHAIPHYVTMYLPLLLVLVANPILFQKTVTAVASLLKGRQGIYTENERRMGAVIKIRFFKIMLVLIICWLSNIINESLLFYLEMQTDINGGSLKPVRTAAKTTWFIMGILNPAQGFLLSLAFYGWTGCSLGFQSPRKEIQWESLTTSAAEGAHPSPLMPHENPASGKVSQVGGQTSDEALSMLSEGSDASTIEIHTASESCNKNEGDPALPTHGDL

| activation at 10 µM [1, 10] [%] | activation at 10 µM [2, 11] [%] | activation at 100 µM [3, 12] [%] | activation at 100 µM [4, 13] [%] | activation at 100 µM [5, 14] [%] | activation at 100 µM [6, 15] [%] | activation at 10 µM [7, 16] [%] | activation at 10 µM [7, 17] [%] | activation at 10 µM [8, 18] [%] | activation at 10 µM [9, 19] [%] | SMILES | activation at 10 µM [1, 20] [%] | activation at 10 µM [2, 21] [%] | activation at 100 µM [3, 22] [%] | activation at 100 µM [4, 23] [%] | activation at 100 µM [5, 24] [%] | activation at 100 µM [6, 25] [%] | activation at 10 µM [7, 26] [%] | activation at 10 µM [7, 27] [%] | activation at 10 µM [8, 28] [%] | activation at 10 µM [9, 29] [%] | other results |
| --- | --- | --- | --- | --- | --- | --- | --- | --- | --- | --- | --- | --- | --- | --- | --- | --- | --- | --- | --- | --- | --- |
| 3.15 | -2.97 | -0.752 | -1.65 | 2.04 | 1.78 | -7.33 | 0.817 | -1.27 | -3.73 | N#C[C@@]1(c2ccc3c(N)ncnn23)O[C@H](CO)[C@@H](O)[C@H]1O [GS441524] | – | – | – | – | – | – | – | – | – | – | – |
| – | -4.78 | 1.23 | -1.86 | 3.44 | 1.68 | -8.27 | – | -0.575 | – | NC(=O)c1nc(F)cnc1O [favipiravir, 6-fluoro-3-hydroxy-2-pyrazinecarboxamide] | – | – | – | – | – | – | – | – | – | – | activation at 100 µM ([1]; GPCR MAS1L (MAS1 oncogene-like), 100μM, read-out: % GPCR activation compared to TPA): -0.101%; activation at 100 µM ([7]; GPCR GPR120 (Free Fatty Acid Receptor 4 (FFAR4)), 100μM, read-out: % GPCR activation compared to TPA): -1.72%; activation at 100 µM ([9]; GPCR GPR56 (G protein-coupled receptor 56), 100μM, read-out: % GPCR activation compared to TPA): -0.74% |
| 0.3 | -1.78 | -0.0279 | -2.51 | -2.83 | 0.223 | -1.75 | -1.23 | -1.95 | -2.2 | CC(C)C(=O)OC[C@H]1O[C@@H](n2ccc(NO)nc2=O)[C@H](O)[C@@H]1O [molnupiravir] | – | – | – | – | – | – | – | – | – | – | – |
| – | – | – | – | – | – | – | – | – | – | CCC(CC)COC(=O)[C@H](C)N[P@](=O)(OC[C@H]1O[C@@](C#N)(c2ccc3c(N)ncnn23)[C@H](O)[C@@H]1O)Oc1ccccc1 [remdesivir] | 0.269 | -2.11 | -0.0536 | -0.638 | 6.64 | 5.17 | -7.9 | 1.09 | -1.23 | -0.797 | – |
| – | – | – | – | – | – | – | – | – | – | CC(C)OC(=O)[C@H](C)N[P@](=O)(OC[C@H]1O[C@@H](n2ccc(=O)[nH]c2=O)[C@](C)(F)[C@@H]1O)Oc1ccccc1 [sofosbuvir] | 0.457 | -2.8 | -12.9 | -1.1 | -3.71 | -1.56 | -2.55 | -1.1 | -0.895 | 0.191 | – |

From paper PMC10175918 (Communications Biology, 2023)
